Reference: US9163030B2 (priority 2012, dated 2015)
Like-named read-outs stand apart in the source and are kept apart here.

Assays:
MOR [1] = settings: brain tissue membranes, included for comparison; read-out: Ki ± SEM MOR; cited from earlier work
DOR [2] = settings: brain tissue membranes, included for comparison; read-out: Ki ± SEM DOR; cited from earlier work
KOR [3] = settings: brain tissue membranes, included for comparison; read-out: Ki ± SEM KOR; cited from earlier work
MOR [4] = molecular target: T1, MOR (Homo sapiens, UniProt P35372); assay: [35S]GTP-γ-S binding assay, hMOR-CHO cells; assay type: biochemical; settings: for Emax: normalized to stimulation by DAMGO, read-out: agonist activity MOR Emax
T1 construct: expressed in transfected cells; host or cells: CHO (hMOR-CHO)

mice [5] = assay: 55° C. warm-water tail-withdrawal test; assay type: in vivo, mouse; settings: for Antinociceptive A50 Values / antinociceptive effect: icv; for Antinociceptive A50 Values: calculated at time of peak effect; for antinociceptive effect: in words; for effect of naloxone pretreatment on antinociceptive effect: naloxone 10 mg/kg ip, -10 min, icv test compound
KOR [6] = molecular target: T2, KOR (Homo sapiens, UniProt P41145); assay: [35S]GTP-γ-S binding assay, hKOR-CHO cells; assay type: biochemical
T2 construct: expressed in transfected cells; host or cells: CHO (hKOR-CHO)

DOR [7] = molecular target: T3, DOR (Mus musculus, UniProt P32300); assay: [35S]GTP-γ-S binding assay, NG108-15 cells; assay type: biochemical; settings: for functional activity profile at DOR: in words
T3 construct: endogenous in cells; host or cells: NG108-15 neuroblastoma x glioma cells

[8] = molecular target: T4, CHO cells co-expressing MOR and DOR (dimer cells) (UniProt P32300+P35372); assay: cell-based; assay type: cell-based, human μ / mouse δ; set-up: Emax: dose or concentration left out as unconfirmed; settings: for Emax: CHO, read-out: decrease of the Emax value for DAMGO-mediated inhibition of forskolin-stimulated cAMP
T4 construct: cMyc (N); expressed in transfected cells; host or cells: CHO (cMyc-mδ-HμCHO cells)

[9] = molecular target: T4, CHO cells co-expressing MOR and DOR (dimer cells); assay type: cell-based, human μ / mouse δ
mice [10] = assay: Tolerance regimen, repeated icv injection, warm-water tail-withdrawal; settings: repeated injection paradigm
KOR [11] = molecular target: T2, KOR; assay: biochemical; assay type: binding
DOR [12] = molecular target: T5, DOR (Homo sapiens, UniProt P41143); assay: Opioid binding assay, displacement of [3H]DADLE, hDOR-CHO cell membranes
T5 construct: expressed in transfected cells; host or cells: CHO (hDOR-CHO)

MOR [13] = molecular target: T1, MOR; assay: Opioid binding assay, displacement of [3H]DAMGO, hMOR-CHO cell membranes
[14] = stimulation of [35S]GTP-γ-S binding, no stim = no stimulation

T2 sequence (P41145 whole entry): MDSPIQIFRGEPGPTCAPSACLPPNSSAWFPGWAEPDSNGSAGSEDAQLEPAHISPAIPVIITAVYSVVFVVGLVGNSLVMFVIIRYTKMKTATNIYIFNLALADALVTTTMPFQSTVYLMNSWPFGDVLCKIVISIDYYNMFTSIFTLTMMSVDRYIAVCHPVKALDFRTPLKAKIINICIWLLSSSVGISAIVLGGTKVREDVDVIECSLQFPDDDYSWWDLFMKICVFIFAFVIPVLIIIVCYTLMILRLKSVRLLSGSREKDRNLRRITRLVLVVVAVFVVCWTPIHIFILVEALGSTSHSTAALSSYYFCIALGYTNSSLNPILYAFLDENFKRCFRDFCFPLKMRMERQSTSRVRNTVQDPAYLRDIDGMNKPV
T1 sequence (P35372 whole entry): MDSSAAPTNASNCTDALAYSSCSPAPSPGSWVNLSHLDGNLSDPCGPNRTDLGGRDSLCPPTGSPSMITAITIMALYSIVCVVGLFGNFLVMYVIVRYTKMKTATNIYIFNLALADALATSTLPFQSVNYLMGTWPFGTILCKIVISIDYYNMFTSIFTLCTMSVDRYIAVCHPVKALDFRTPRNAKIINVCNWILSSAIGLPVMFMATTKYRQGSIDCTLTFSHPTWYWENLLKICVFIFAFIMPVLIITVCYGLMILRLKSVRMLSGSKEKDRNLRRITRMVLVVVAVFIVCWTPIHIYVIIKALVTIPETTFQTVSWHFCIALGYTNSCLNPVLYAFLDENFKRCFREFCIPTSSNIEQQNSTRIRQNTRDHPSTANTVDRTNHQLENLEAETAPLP
T4 sequence (P35372 whole entry): as above
T4 sequence (P32300 whole entry): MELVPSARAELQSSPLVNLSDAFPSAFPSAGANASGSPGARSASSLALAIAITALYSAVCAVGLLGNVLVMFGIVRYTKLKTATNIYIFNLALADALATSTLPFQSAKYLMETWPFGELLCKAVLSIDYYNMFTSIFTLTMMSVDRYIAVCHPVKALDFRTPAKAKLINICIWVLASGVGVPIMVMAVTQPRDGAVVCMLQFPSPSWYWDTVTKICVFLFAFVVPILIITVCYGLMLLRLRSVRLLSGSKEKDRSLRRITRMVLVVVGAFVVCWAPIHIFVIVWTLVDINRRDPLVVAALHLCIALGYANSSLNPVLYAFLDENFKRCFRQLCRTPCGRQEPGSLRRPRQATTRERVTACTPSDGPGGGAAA
T3 sequence (P32300 whole entry): as above
T5 sequence (P41143 whole entry): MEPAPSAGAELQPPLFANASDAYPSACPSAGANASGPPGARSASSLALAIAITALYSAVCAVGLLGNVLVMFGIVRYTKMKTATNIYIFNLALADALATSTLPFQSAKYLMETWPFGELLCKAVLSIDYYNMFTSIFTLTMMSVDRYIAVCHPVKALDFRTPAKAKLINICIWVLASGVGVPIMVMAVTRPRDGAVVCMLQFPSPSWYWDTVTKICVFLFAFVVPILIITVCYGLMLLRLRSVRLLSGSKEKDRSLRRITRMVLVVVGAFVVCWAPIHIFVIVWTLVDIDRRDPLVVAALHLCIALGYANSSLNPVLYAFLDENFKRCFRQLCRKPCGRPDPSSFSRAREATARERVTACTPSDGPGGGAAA

In the case of `CN1CCC23c4c5ccc(O)c4OC2c2ncc(-c4ccc(Cl)cc4)cc2CC3(O)C1C5` (stereo not shown) [Compound 9], the Ki (MOR [1]) is listed as 230 ± 10 nM, the Ki (DOR [2]) is listed as 3.9 ± 0.2 nM and the Ki (KOR [3]) is listed as 468 ± 17 nM.
With `Oc1ccc2c3c1OC1c4ncc(-c5ccc(Cl)cc5)cc4CC4(OCCCc5ccccc5)C(C2)N(CC2CC2)CCC314` (stereo not drawn) [Compound 17d, 5′-(4-Chlorophenyl)-17-(cyclopropylmethyl)-6,7-didehydro-4,5α-epoxy-3-hydroxy-14-(3-phenylpropoxy)pyrido[2′,3′:6,7]morphinan] the “functional activity profile at MOR” value (MOR [4]; in words) was “agonist profile at MOR”, the Emax (MOR [4]) was 72% and the “Antinociceptive A50 Values” (mice [5]) was 0.35 nmol. The antinociceptive effect (mice [5]) was “full antinociceptive effects”, the “effect of naloxone pretreatment on antinociceptive effect” value (mice [5]) was “blocked by naloxone pretreatment” and the “functional activity profile at KOR” value (KOR [6]; in words) was “devoid of agonist activity at KOR”. The “functional activity profile at DOR” value (DOR [7]) was “antagonists at DOR”, the “antagonist activity DOR Ke” value (DOR [7]; shift in EC50 of standard agonist) was 0.091 nM and the “agonist activity DOR EC50” value (DOR [7]; [14]) was “no stim”. The “increase in the EC50 value for DAMGO-mediated inhibition of forskolin-stimulated cAMP accumulation (tolerance)” value [8] was “did not produce either tolerance”, the Emax [8] was 40% and the “cAMP superactivation (forskolin-stimulated cAMP accumulation after chronic treatment)” value ([9]; 20 h treatment, washed, forskolin/IBMX 100 μM/500 μM) was “did not”. For the same compound, the “naloxone-induced cAMP overshoot” value ([9]; 20 h treatment, washed, forskolin/IBMX plus 10 μM naloxone) was “did not”.
With `CN1CCC23c4c5ccc(O)c4OC2c2ncc(-c4ccc(Cl)cc4)cc2CC3(OCCCc2ccccc2)C1C5` (stereo not drawn) [Compound 17h, 5′-(4-Chlorophenyl)-6,7-didehydro-4,5α-epoxy-3-hydroxy-17-methyl-14-(3-phenylpropoxy)pyrido[2′,3′:6,7]morphinan] the EC50 (MOR [4]) was 2.15 nM, the Emax (MOR [4]) was 125 ± 2% and the “Antinociceptive A50 Values” (mice [5]) was 0.23 nmol. For the same compound, the antinociceptive effect (mice [5]) was “full antinociceptive effects”, the “effect of naloxone pretreatment on antinociceptive effect” value (mice [5]) was “blocked by naloxone pretreatment” and the “toxicity on repeated administration” value (mice [10]) was “undue toxicity”. For the same compound, the “selectivity ratio KOR/DOR” value (KOR [11]) was 1.5, the Ki (KOR [11]; read-out: Ki ± SEM KOR) was 1.53 ± 0.1 nM and the Ki (DOR [12]) was 1.04 ± 0.08 nM. The “agonist activity KOR EC50” value (KOR [6]; [14]) was “no stim”, the Ki (MOR [13]) was 0.54 ± 0.04 nM and the “selectivity ratio MOR/DOR” value (MOR [13]; ratio of Ki values, CHO membranes) was 0.52. The “functional activity profile at DOR” value (DOR [7]) was “weak to potent partial agonist activity at DOR”, the Emax (DOR [7]; read-out: agonist activity DOR Emax) was 85% and the “increase in the EC50 value for DAMGO-mediated inhibition of forskolin-stimulated cAMP accumulation (tolerance)” value [8] was roughly 7 fold. For the same compound, the Emax [8] was 20%, the “cAMP superactivation (forskolin-stimulated cAMP accumulation after chronic treatment)” value [9] was “effects similar to that of morphine” and the “naloxone-induced cAMP overshoot” value [9] was “effects similar to that of morphine”.
